Measurements as given in patent US9598459B2, “Pharmaceutical compositions and methods” (priority 2015, dated 2017).
Several values for one entry are separate records, joined by “and”; a condition that tells them apart may be missing. Identical values can stand only once.

Columns and labels:
[1] = Cytotoxicity on CCRF-CEM; settings: human, CCRF-CEM cells, CC50, Cytotoxicity control, CCRF-CEM, CellTiter MTS
[2] = Cytotoxicity control on HepG2 (CellTiter MTS); settings: human, HepG2 cells
[3] = in vitro; settings: African green monkey, CC50
[4] = in vitro; settings: human
[5] = tested on: OM-10.1 cells; assay: Toxicity in OM-10.1 (Cell Titer 96); settings: for TOXICITY VALUES (Cell Titer 96): SAMPLE 1-3, MEAN
[6] = Toxicity in OM-10.1 (Cell Titer 96); settings: human, OM-10.1 cells
[7] = tested on: HIV-1 LAV; assay: Inhibition of inducible HIV-1 LAV replication in OM-10.1 (RT values); type: cell-based, human immunodeficiency virus type 1; settings: for RT Values: SAMPLE 1-3, MEAN
[8] = tested on: Hepatitis C virus (replicon) clone B (genotype 1a); assay: HCV genotype 1a HuH-7 clone B subgenomic replicon RNA replication; type: cell-based, human hepatitis C virus; settings: 10 μM
[9] = in vitro; settings: human; remark: listed apart in the source
[10] = tested on: cellular ribosomal RNA (rRNA) synthesis; assay: Cellular ribosomal RNA synthesis in HCV replicon cells (TaqMan RT-qPCR); type: cell-based; settings: 10 μM
[11] = tested on: Norwalk virus (replicon) GT1; assay: Norwalk virus replicon (GT1) in HG23, RNA hybridization; type: cell-based, Norwalk virus (human norovirus); settings: Norwalk virus
[12] = tested on: MNV MNV-1; assay: Murine norovirus (MNV-1) antiviral screen in RAW267.4; type: cell-based; settings: RAW267.4, Neutral Red (Cytopathology), MNV-1, RAW267.4, Example 11
[13] = Toxicity in RAW267.4 cells (neutral red); settings: mouse, RAW267.4 cells, CC50, Neutral Red (Toxicity), Example 11
[14] = Human immunodeficiency virus 1, OM-10.1
[15] = GT1, HG23, Norwalk virus (replicon) GT1, HG23, Table 10

In the case of `C[C@@H]1C[C@@H]([C@H](O)CC2CC(=O)NC(=O)C2)C(=O)[C@@H](C)C1` [Cycloheximide], the CC50 [1] is reported as 100 nM, the CC50 [2] is reported as 600 nM and the CC50 [3] is reported as 200 nM. The CC50 [4] was 500 nM.
For `O=c1c2ccccc2n2nnc3ccc(NCCCN4CCN(CCCNc5ccc6nnn7c8ccccc8c(=O)c5c67)CC4)c1c32` [Temacrazine (TMZ)], the “% CC” value ([5]; 0.10 nM) was 108.4%, the “TOXICITY VALUES (Cell Titer 96)” value ([5]; 0.10 nM) was 0.727 O.D. @ 490/650 nm and 0.895 O.D. @ 490/650 nm and 0.621 O.D. @ 490/650 nm and the “% CC” value ([5]; 1.00 nM) was 109.3%. The “TOXICITY VALUES (Cell Titer 96)” value ([5]; 1.00 nM) was 0.781 O.D. @ 490/650 nm and 0.744 O.D. @ 490/650 nm and 0.736 O.D. @ 490/650 nm, the “% CC” value ([5]; 3.16 nM) was 126.3% and the “TOXICITY VALUES (Cell Titer 96)” value ([5]; 3.16 nM) was 0.830 O.D. @ 490/650 nm and 0.933 O.D. @ 490/650 nm and 0.849 O.D. @ 490/650 nm. The “% CC” value ([5]; 10.0 nM) was 137.0%, the “TOXICITY VALUES (Cell Titer 96)” value ([5]; 10.0 nM) was 0.882 O.D. @ 490/650 nm and 0.999 O.D. @ 490/650 nm and 0.954 O.D. @ 490/650 nm and the “% CC” value ([5]; 31.6 nM) was 138.1%. For the same molecule, the “TOXICITY VALUES (Cell Titer 96)” value ([5]; 31.6 nM) was 0.967 O.D. @ 490/650 nm and 0.902 O.D. @ 490/650 nm and 0.988 O.D. @ 490/650 nm, the “% CC” value ([5]; 100 nM) was 138.2% and the “TOXICITY VALUES (Cell Titer 96)” value ([5]; 100 nM) was 0.917 O.D. @ 490/650 nm and 0.990 O.D. @ 490/650 nm and 0.952 O.D. @ 490/650 nm. For the same molecule, the “% CC” value ([5]; 316 nM) was 136.7%, the “TOXICITY VALUES (Cell Titer 96)” value ([5]; 316 nM) was 0.977 O.D. @ 490/650 nm and 1.037 O.D. @ 490/650 nm and 0.813 O.D. @ 490/650 nm and the “% CC” value ([5]; 1000 nM) was 129.9%. For the same molecule, the “TOXICITY VALUES (Cell Titer 96)” value ([5]; 1000 nM) was 0.897 O.D. @ 490/650 nm and 0.910 O.D. @ 490/650 nm and 0.879 O.D. @ 490/650 nm, the “TC 90%” value ([5]; OM-10.1) was greater than 1000 nM and the “TC 95%” value ([5]; OM-10.1) was greater than 1000 nM. For the same molecule, the CC50 ([5]; read-out: TC 50%, OM-10.1) was greater than 1000 nM, the CC50 [6] was greater than 1000 nM and the “% VC” value ([7]; 0.10 nM) was 96.8%. The “RT Values” ([7]; 0.10 nM) was 30380 cpm and 31745 cpm and 26409 cpm, the “% VC” value ([7]; 1.00 nM) was 87.9% and the “RT Values” ([7]; 1.00 nM) was 32770 cpm and 23041 cpm and 24504 cpm. The “% VC” value ([7]; 3.16 nM) was 92.4%, the “RT Values” ([7]; 3.16 nM) was 30588 cpm and 25259 cpm and 28648 cpm and the “% VC” value ([7]; 10.0 nM) was 99.6%. The “RT Values” ([7]; 10.0 nM) was 27453 cpm and 31623 cpm and 31990 cpm, the “% VC” value ([7]; 31.6 nM) was 87.0% and the “RT Values” ([7]; 31.6 nM) was 25515 cpm and 24677 cpm and 29321 cpm. The “% VC” value ([7]; 100 nM) was 37.5%, the “% VC” value ([7]; 316 nM) was 22.7% and the “RT Values” ([7]; 316 nM) was 6512 cpm and 5272 cpm and 8986 cpm. The “% VC” value ([7]; 1000 nM) was 2.0%, the EC50 ([7]; Human immunodeficiency virus 1) was 70 nM and the EC90 ([7]; Human immunodeficiency virus 1) was 640 nM. The IC50 [7, 14] was 74.8 nM, the IC90 [7, 14] was 641 nM and the “IC 95%” value ([7]; OM-10.1) was 847 nM. For the same molecule, the “Selectivity Index (CC50/EC50)” value ([7]; OM-10.1, Table 7) was greater than 0.13.
In the case of `C[C@@]1(O)[C@H](O)[C@@H](CO)O[C@H]1n1ccc(N)nc1=O` [2′-C-methylcytidine (RS-446), 2′-C-methylcytidine, reference compound], the “TaqMan RT-qPCR threshold cycle value difference (ΔCT) of HCV replicon RNA synthesis” value [8] is reported as 5.72, the “Inhibition of HCV replicon RNA syntheses at the fixed concentration of 10 μM of the test compound” value ([8]; HuH-7 clone B) is reported as 98.08% and the CC50 [9] is reported as greater than 300000 nM. For the same molecule, the “Inhibition of cellular ribosomal RNA (rRNA) synthesis at the fixed concentration of 10 μM of the test compound” value [10] was 31.09%, the EC50 [11, 15] was 6900 nM and the EC90 [11, 15] was 18000 nM. It also gave an EC90 ([11]; GT1, HG23, RNA Hybridization (Replicon), NV GT1, HG23, Example 10) of 19000 nM, an EC50 ([11]; GT1, HG23, RNA Hybridization (Replicon), NV GT1, HG23, Example 10, unit from Conc. Range) of 6400 nM and an EC90 [12] of 3100 nM. It also gave an EC50 ([12]; unit from Conc. Range) of 1000 nM and a CC50 [13] greater than 30000 nM.
